{"source": "ChEMBL document CHEMBL5321270", "about": "“Discovery of Pyrazolone Carbothioamide Derivatives as Inhibitors of the Pdr1-KIX Interaction for Combinational Treatment of Azole-Resistant Candidiasis” (J Med Chem, 2023)", "key": {"Nakaseomyces glabratus [1]": {"tested_on": "Nakaseomyces glabratus", "assay": "Synergistic antifungal activity against fluconazole-resistant Candida glabrata 0161 assessed as fractional inhibitory concentration index incubated for 48 hrs in presence of A1 compound by checkerboard microdilution method", "format": "functional"}, "Nakaseomyces glabratus [2]": {"tested_on": "Nakaseomyces glabratus", "assay": "Antifungal activity against fluconazole-resistant Candida glabrata 0161 assessed as downregulation of CDR2 gene expression at 32 ug/ml by RT-PCR analysis", "format": "functional, organism-based", "details": "dose 32.0 µg/ml"}, "Nakaseomyces glabratus [3]": {"tested_on": "Nakaseomyces glabratus", "assay": "Antifungal activity against fluconazole-resistant Candida glabrata 0161 assessed as downregulation of CDR1 gene expression at 32 ug/ml by RT-PCR analysis", "format": "functional, organism-based", "details": "dose 32.0 µg/ml"}, "Nakaseomyces glabratus [4]": {"tested_on": "Nakaseomyces glabratus", "assay": "Antifungal activity against fluconazole-resistant Candida glabrata 0161 assessed as fungal growth inhibition at 16 ug/ml incubated for 48 hrs by time-growth curve assay", "format": "functional, organism-based", "details": "dose 16.0 µg/ml"}, "Nakaseomyces glabratus [5]": {"tested_on": "Nakaseomyces glabratus", "assay": "Synergistic antifungal activity against fluconazole-resistant Candida glabrata 0161 assessed as fractional inhibitory concentration index incubated for 48 hrs in presence of A11 compound by checkerboard microdilution method", "format": "functional"}, "Nakaseomyces glabratus [6]": {"tested_on": "Nakaseomyces glabratus", "assay": "Synergistic antifungal activity against fluconazole-resistant Candida glabrata 0161 assessed as fractional inhibitory concentration index incubated for 48 hrs in presence of A5 compound by checkerboard microdilution method", "format": "functional"}, "Nakaseomyces glabratus [7]": {"tested_on": "Nakaseomyces glabratus", "assay": "Synergistic antifungal activity against fluconazole-resistant Candida glabrata 0161 assessed as fractional inhibitory concentration index incubated for 48 hrs in presence of B6 compound by checkerboard microdilution method", "format": "functional"}, "Nakaseomyces glabratus [8]": {"tested_on": "Nakaseomyces glabratus", "assay": "Synergistic antifungal activity against fluconazole-resistant Candida glabrata 0161 assessed as fractional inhibitory concentration index incubated for 48 hrs in presence of A4 compound by checkerboard microdilution method", "format": "functional"}, "Nakaseomyces glabratus [9]": {"tested_on": "Nakaseomyces glabratus", "assay": "Synergistic antifungal activity against fluconazole-resistant Candida glabrata 0161 assessed as fractional inhibitory concentration index incubated for 48 hrs in presence of B4 compound by checkerboard microdilution method", "format": "functional"}, "Nakaseomyces glabratus [10]": {"tested_on": "Nakaseomyces glabratus", "assay": "Synergistic antifungal activity against fluconazole-resistant Candida glabrata 0161 assessed as inhibition of fungal biofilm formation at 4 ug/ml incubated for 24 hrs in presence of compound B8 by XXT reduction menadione assay", "format": "functional"}, "Nakaseomyces glabratus [11]": {"tested_on": "Nakaseomyces glabratus", "assay": "Antifungal activity against fluconazole-resistant Candida glabrata 0161 assessed as inhibition of fungal biofilm formation at 32 ug/ml incubated for 24 hrs by XXT reduction menadione assay", "format": "functional"}, "Nakaseomyces glabratus [12]": {"tested_on": "Nakaseomyces glabratus", "assay": "Synergistic antifungal activity against fluconazole-resistant Candida glabrata 0161 assessed as fractional inhibitory concentration index incubated for 48 hrs in presence of A7 compound by checkerboard microdilution method", "format": "functional"}, "Nakaseomyces glabratus [13]": {"tested_on": "Nakaseomyces glabratus", "assay": "Synergistic antifungal activity against fluconazole-resistant Candida glabrata 0161 assessed as fractional inhibitory concentration index incubated for 48 hrs in presence of A14 compound by checkerboard microdilution method", "format": "functional"}, "Nakaseomyces glabratus [14]": {"tested_on": "Nakaseomyces glabratus", "assay": "Synergistic antifungal activity against fluconazole-resistant Candida glabrata 0161 assessed as fractional inhibitory concentration index incubated for 48 hrs in presence of B3 compound by checkerboard microdilution method", "format": "functional"}, "Nakaseomyces glabratus [15]": {"tested_on": "Nakaseomyces glabratus", "assay": "Synergistic antifungal activity against fluconazole-resistant Candida glabrata 0161 assessed as fractional inhibitory concentration index incubated for 48 hrs in presence of A8 compound by checkerboard microdilution method", "format": "functional"}, "Nakaseomyces glabratus [16]": {"tested_on": "Nakaseomyces glabratus", "assay": "Synergistic antifungal activity against fluconazole-resistant Candida glabrata 0161 assessed as fractional inhibitory concentration index incubated for 48 hrs in presence of A13 compound by checkerboard microdilution method", "format": "functional"}, "Nakaseomyces glabratus [17]": {"tested_on": "Nakaseomyces glabratus", "assay": "Synergistic antifungal activity against fluconazole-resistant Candida glabrata 0161 assessed as fractional inhibitory concentration index incubated for 48 hrs in presence of A10 compound by checkerboard microdilution method", "format": "functional"}, "Nakaseomyces glabratus [18]": {"tested_on": "Nakaseomyces glabratus", "assay": "Synergistic antifungal activity against fluconazole-resistant Candida glabrata 0161 assessed as fractional inhibitory concentration index incubated for 48 hrs in presence of A3 compound by checkerboard microdilution method", "format": "functional"}, "Nakaseomyces glabratus [19]": {"tested_on": "Nakaseomyces glabratus", "assay": "Synergistic antifungal activity against fluconazole-resistant Candida glabrata 0161 assessed as fractional inhibitory concentration index incubated for 48 hrs in presence of A9 compound by checkerboard microdilution method", "format": "functional"}, "Nakaseomyces glabratus [20]": {"tested_on": "Nakaseomyces glabratus", "assay": "Antifungal activity against fluconazole-resistant Candida glabrata 0161 assessed as fungal growth inhibition incubated for 48 hrs by microplate reader assay", "format": "functional"}, "Nakaseomyces glabratus [21]": {"tested_on": "Nakaseomyces glabratus", "assay": "Antifungal activity against fluconazole-resistant Candida glabrata 0161 assessed as inhibition of fungal mature biofilm formation at 0.25 to 64 ug/ml incubated for 24 hrs by XXT reduction menadione assay", "format": "functional, organism-based", "details": "dose 0.25-64 µg/ml"}, "Nakaseomyces glabratus [22]": {"tested_on": "Nakaseomyces glabratus", "assay": "Synergistic antifungal activity against fluconazole-resistant Candida glabrata 0161 assessed as fractional inhibitory concentration index incubated for 48 hrs in presence of A6 compound by checkerboard microdilution method", "format": "functional"}, "Nakaseomyces glabratus [23]": {"tested_on": "Nakaseomyces glabratus", "assay": "Antifungal activity against FLC-resistant Candida glabrata 0161 infected in cyclophosphamide immunosuppressed ICR mouse model assessed as inhibition of fungal growth in kidney at 40 mg/kg,ip administrated for 5 days", "format": "functional, organism-based", "details": "time 5.0 day"}, "Nakaseomyces glabratus [24]": {"tested_on": "Nakaseomyces glabratus", "assay": "Antifungal activity against fluconazole-resistant Candida glabrata 0161 assessed as downregulation of PDR1 gene expression at 32 ug/ml by RT-PCR analysis", "format": "functional, organism-based", "details": "dose 32.0 µg/ml"}, "Nakaseomyces glabratus [25]": {"tested_on": "Nakaseomyces glabratus", "assay": "Synergistic antifungal activity against fluconazole-resistant Candida glabrata 0161 assessed as fractional inhibitory concentration index incubated for 48 hrs in presence of B8 compound by checkerboard microdilution method", "format": "functional"}, "Nakaseomyces glabratus [26]": {"tested_on": "Nakaseomyces glabratus", "assay": "Synergistic antifungal activity against fluconazole-resistant Candida glabrata 0161 assessed as fractional inhibitory concentration index incubated for 48 hrs in presence of B2 compound by checkerboard microdilution method", "format": "functional"}, "Nakaseomyces glabratus [27]": {"tested_on": "Nakaseomyces glabratus", "assay": "Synergistic antifungal activity against fluconazole-resistant Candida glabrata 0161 assessed as fractional inhibitory concentration index incubated for 48 hrs in presence of B7 compound by checkerboard microdilution method", "format": "functional"}, "Nakaseomyces glabratus [28]": {"tested_on": "Nakaseomyces glabratus", "assay": "Synergistic antifungal activity against fluconazole-resistant Candida glabrata 0161 assessed as fractional inhibitory concentration index incubated for 48 hrs in presence of B5 compound by checkerboard microdilution method", "format": "functional"}, "Nakaseomyces glabratus [29]": {"tested_on": "Nakaseomyces glabratus", "assay": "Antifungal activity against FLC-resistant Candida glabrata 0161 infected in cyclophosphamide immunosuppressed ICR mouse model assessed as pathological change in kidney at 5 mg/kg,ip administrated for 5 days by Hematoxylin and eosin staining based analysis", "format": "functional, organism-based", "details": "time 5.0 day"}, "Nakaseomyces glabratus [30]": {"tested_on": "Nakaseomyces glabratus", "assay": "Synergistic antifungal activity against fluconazole-resistant Candida glabrata 0161 assessed as fractional inhibitory concentration index incubated for 48 hrs in presence of A12 compound by checkerboard microdilution method", "format": "functional"}, "Nakaseomyces glabratus [31]": {"tested_on": "Nakaseomyces glabratus", "assay": "Antifungal activity against fluconazole-resistant Candida glabrata 0161 assessed as downregulation of ERG11 gene expression at 32 ug/ml by RT-PCR analysis", "format": "functional, organism-based", "details": "dose 32.0 µg/ml"}, "Nakaseomyces glabratus [32]": {"tested_on": "Nakaseomyces glabratus", "assay": "Synergistic antifungal activity against fluconazole-resistant Candida glabrata 0161 assessed as fractional inhibitory concentration index incubated for 48 hrs in presence of B1 compound by checkerboard microdilution method", "format": "functional"}, "Nakaseomyces glabratus [33]": {"tested_on": "Nakaseomyces glabratus", "assay": "Antifungal activity against FLC-resistant Candida glabrata 0161 infected in cyclophosphamide immunosuppressed ICR mouse model assessed as inhibition of fungal growth in kidney at 5 mg/kg,ip administrated for 5 days", "format": "functional, organism-based", "details": "time 5.0 day"}, "Nakaseomyces glabratus [34]": {"tested_on": "Nakaseomyces glabratus", "assay": "Synergistic antifungal activity against fluconazole-resistant Candida glabrata 0161 assessed as fractional inhibitory concentration index incubated for 48 hrs in presence of A2 compound by checkerboard microdilution method", "format": "functional"}}, "note": "Active and inactive are the calls of the source. The calls are words filed in the database; no cut-off is given here.", "data": [{"compound": "OC(Cn1cncn1)(Cn1cncn1)c1ccc(F)cc1F", "note": "[FLUCONAZOLE]", "values": [{"measurement": "fractional inhibitory concentration index (FICI)", "setting": "Nakaseomyces glabratus [1]", "result": 0.31}, {"measurement": "Activity", "setting": "Nakaseomyces glabratus [2]", "result": "inactive"}, {"measurement": "Activity", "setting": "Nakaseomyces glabratus [3]", "result": "inactive"}, {"measurement": "Activity", "setting": "Nakaseomyces glabratus [4]", "result": "inactive"}, {"measurement": "fractional inhibitory concentration index (FICI)", "setting": "Nakaseomyces glabratus [5]", "result": 0.52}, {"measurement": "fractional inhibitory concentration index (FICI)", "setting": "Nakaseomyces glabratus [6]", "result": 0.56}, {"measurement": "fractional inhibitory concentration index (FICI)", "setting": "Nakaseomyces glabratus [7]", "result": 0.53}, {"measurement": "fractional inhibitory concentration index (FICI)", "setting": "Nakaseomyces glabratus [8]", "result": 0.53}, {"measurement": "fractional inhibitory concentration index (FICI)", "setting": "Nakaseomyces glabratus [9]", "result": 0.31}, {"measurement": "inhibition at 4 µg/mL", "setting": "Nakaseomyces glabratus [10]", "result": 33, "unit": "%"}, {"measurement": "inhibition at 32 µg/mL", "setting": "Nakaseomyces glabratus [11]", "result": 39, "unit": "%"}, {"measurement": "fractional inhibitory concentration index (FICI)", "setting": "Nakaseomyces glabratus [12]", "result": 0.38}, {"measurement": "fractional inhibitory concentration index (FICI)", "setting": "Nakaseomyces glabratus [13]", "result": 0.56}, {"measurement": "fractional inhibitory concentration index (FICI)", "setting": "Nakaseomyces glabratus [14]", "result": 0.31}, {"measurement": "fractional inhibitory concentration index (FICI)", "setting": "Nakaseomyces glabratus [15]", "result": 0.53}, {"measurement": "fractional inhibitory concentration index (FICI)", "setting": "Nakaseomyces glabratus [16]", "result": 0.53}, {"measurement": "fractional inhibitory concentration index (FICI)", "setting": "Nakaseomyces glabratus [17]", "result": 0.53}, {"measurement": "fractional inhibitory concentration index (FICI)", "setting": "Nakaseomyces glabratus [18]", "result": 0.56}, {"measurement": "fractional inhibitory concentration index (FICI)", "setting": "Nakaseomyces glabratus [19]", "result": 0.53}, {"measurement": "MIC", "setting": "Nakaseomyces glabratus [20]", "result": 32, "unit": "µg/mL"}, {"measurement": "inhibition", "setting": "Nakaseomyces glabratus [21]", "result": "Active"}, {"measurement": "fractional inhibitory concentration index (FICI)", "setting": "Nakaseomyces glabratus [22]", "result": 0.25}, {"measurement": "Activity", "setting": "Nakaseomyces glabratus [23]", "result": "Active"}, {"measurement": "Activity", "setting": "Nakaseomyces glabratus [24]", "result": "inactive"}, {"measurement": "fractional inhibitory concentration index (FICI)", "setting": "Nakaseomyces glabratus [25]", "result": 0.28}, {"measurement": "fractional inhibitory concentration index (FICI)", "setting": "Nakaseomyces glabratus [26]", "result": 0.29}, {"measurement": "fractional inhibitory concentration index (FICI)", "setting": "Nakaseomyces glabratus [27]", "result": 0.52}, {"measurement": "fractional inhibitory concentration index (FICI)", "setting": "Nakaseomyces glabratus [28]", "result": 0.76}, {"measurement": "Activity", "setting": "Nakaseomyces glabratus [29]", "result": "Active"}, {"measurement": "fractional inhibitory concentration index (FICI)", "setting": "Nakaseomyces glabratus [30]", "result": 0.53}, {"measurement": "Activity", "setting": "Nakaseomyces glabratus [31]", "result": "inactive"}, {"measurement": "fractional inhibitory concentration index (FICI)", "setting": "Nakaseomyces glabratus [32]", "result": 0.53}, {"measurement": "Activity", "setting": "Nakaseomyces glabratus [33]", "result": "inactive"}, {"measurement": "fractional inhibitory concentration index (FICI)", "setting": "Nakaseomyces glabratus [34]", "result": 0.56}]}]}
